Source: US10381110B2, “Molecules” (University of Dundee, priority 2010, dated 2019)
Counter-ions that a name gives are not always drawn. Like-named read-outs stand apart in the source and are kept apart here.

Assays:
dopamine D1 = dopamine D1 (Homo sapiens, UniProt P21728); test: Primary radioligand binding assay (NIMH PDSP); details: primary radiobinding assay, [3H]SCH233930; also: test concentration or dose not given here
dopamine D2 [1] = target: T1, dopamine D2 (Homo sapiens, UniProt P14416); test: Primary radioligand binding assay (NIMH PDSP); details: primary radiobinding assay, [3H]N-methylspiperone; as to D3 (% inh): test concentration or dose not given here; as to D4 (% inh): test concentration or dose not given here
T1 sequence (P14416 whole entry, species assumed): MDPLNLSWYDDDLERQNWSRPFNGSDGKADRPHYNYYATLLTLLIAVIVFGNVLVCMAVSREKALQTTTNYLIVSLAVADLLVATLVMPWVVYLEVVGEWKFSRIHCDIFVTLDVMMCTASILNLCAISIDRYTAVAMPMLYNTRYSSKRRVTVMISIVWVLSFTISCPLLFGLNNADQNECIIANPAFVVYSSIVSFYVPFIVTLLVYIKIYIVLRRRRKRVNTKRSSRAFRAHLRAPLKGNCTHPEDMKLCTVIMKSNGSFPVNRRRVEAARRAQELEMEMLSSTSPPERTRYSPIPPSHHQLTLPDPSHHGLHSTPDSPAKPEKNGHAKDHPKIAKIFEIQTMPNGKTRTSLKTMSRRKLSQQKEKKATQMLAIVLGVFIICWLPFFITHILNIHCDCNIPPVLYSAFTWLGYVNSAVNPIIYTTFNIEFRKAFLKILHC

dopamine D3 [2] = target: T2, dopamine D3 (Homo sapiens, UniProt P35462); test: Secondary radioligand binding assay (Ki); details: for α1/D2: Table 23: Selectivity of Dopamine D3 over average of α1 Receptors; for α1A/D2 / α1B/D2 / α1D/D2: Table 23: Selectivity of Dopamine D3 over α1 Receptors, ratio of Ki
T2 sequence (P35462 whole entry): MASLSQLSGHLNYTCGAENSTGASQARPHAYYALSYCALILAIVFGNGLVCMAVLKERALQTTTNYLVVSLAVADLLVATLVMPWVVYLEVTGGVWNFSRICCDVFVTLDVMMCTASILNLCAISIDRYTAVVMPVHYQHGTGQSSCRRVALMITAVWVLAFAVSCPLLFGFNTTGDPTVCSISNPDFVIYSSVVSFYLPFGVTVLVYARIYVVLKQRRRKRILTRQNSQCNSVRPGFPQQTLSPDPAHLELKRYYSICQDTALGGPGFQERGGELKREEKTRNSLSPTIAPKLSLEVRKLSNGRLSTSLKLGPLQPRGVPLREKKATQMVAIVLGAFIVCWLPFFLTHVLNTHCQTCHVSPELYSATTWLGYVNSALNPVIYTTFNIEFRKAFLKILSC
Experimental: (§1) Radioligand is diluted to five times the assay concentration (see Table 18) in Standard Binding Buffer. Typically, the assay concentration of radioligand is a value between one half the KD and the KD of a particular radioligand at its target. 50 μl aliquots of radioligand are dispensed into the wells of a 96-well plate containing 100 μl of Standard Binding Buffer. Then, duplicate 50 μl aliquots of the test and reference compound dilutions are added.
(§2) The 250 μl reactions are incubated at room temperature and shielded from light (to prevent photolysis of light-sensitive ligands) for 1.5 hours, then harvested by rapid filtration onto Whatman GF/B glass fiber filters pre-soaked with 0.3% polyethyleneimine using a 96-well Brandel harverster. Four rapid 500 μl washes are performed with chilled Standard Binding Buffer to reduce non-specific binding. Filters are placed in 6 ml scintillation tubes and allowed to dry overnight. The next day, 4 ml of EcoScint scintillation cocktail (National Diagnostics) are added to each tube. The tubes are capped, labeled, and counted by liquid scintillation counting. […] The filter mats are dried, then scintillant is melted onto the filters and the radioactivity retained on the filters is counted in a Microbeta scintillation counter.
(§3) Raw data (dpm) representing total radioligand binding (i.e. specific+non-specific binding) are plotted as a function of the logarithm of the molar concentration of the competitor (i.e. test or reference compound).
(§4) Assay Buffers: Dopamine Binding Buffer (50 mM NaCl, 50 mM HEPES-HCl, 5 mM MgCl2, 0.5 mM EDTA, pH 7.4)
(§5) Membrane Fraction Source: Transiently or stably transfected cell lines (e.g. HEK293, COS, CHO, NIH3T3)
(§6) The method is carried out in the manner described for the serotonin receptor assay above. Eleven dilutions (5× assay concentration) of the test and reference (see Table 19) compounds are prepared in Dopamine Binding Buffer by serial dilution, as previously described. Radioligand is diluted to five times the assay concentration (see Table 20) in Dopamine Binding Buffer.

5-HT5A = 5-HT5A (Homo sapiens, UniProt P47898); test: Secondary radioligand binding assay (Ki)
Sequence of 5-HT5A (P47898 whole entry, species assumed): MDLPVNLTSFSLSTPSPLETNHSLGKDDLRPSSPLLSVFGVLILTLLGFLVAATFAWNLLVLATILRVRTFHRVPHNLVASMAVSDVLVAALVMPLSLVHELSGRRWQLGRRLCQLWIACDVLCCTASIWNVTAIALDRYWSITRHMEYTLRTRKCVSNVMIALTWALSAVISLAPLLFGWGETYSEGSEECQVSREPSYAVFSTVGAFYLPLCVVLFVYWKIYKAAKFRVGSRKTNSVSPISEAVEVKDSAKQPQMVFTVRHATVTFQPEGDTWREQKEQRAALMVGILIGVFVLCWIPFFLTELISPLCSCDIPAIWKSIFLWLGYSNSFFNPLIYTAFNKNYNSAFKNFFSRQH
Experimental: (§7) Assay Buffer: Standard Binding Buffer (50 mM Tris-HCl, 10 mM MgCl2, 1 mM EDTA, pH 7.4)
(§8) Membrane Fraction Source: Transiently or stably transfected cell lines (e.g., HEK293, COS, CHO, NIH3T3)
as §1, §2, §3

dopamine D3 [3] = target: T2, dopamine D3; test: Primary radioligand binding assay (NIMH PDSP); details: primary radiobinding assay, N-methylspiperone; as to D3 (% inh): test concentration or dose not given here; as to D4 (% inh): test concentration or dose not given here
5HT1a = target: T3, 5HT1a (Homo sapiens, UniProt P08908); test: Primary radioligand binding assay (NIMH PDSP); details: primary radiobinding assay, [3H]8-OH-DPAT; also: test concentration or dose not given here
T3 sequence (P08908 1-422): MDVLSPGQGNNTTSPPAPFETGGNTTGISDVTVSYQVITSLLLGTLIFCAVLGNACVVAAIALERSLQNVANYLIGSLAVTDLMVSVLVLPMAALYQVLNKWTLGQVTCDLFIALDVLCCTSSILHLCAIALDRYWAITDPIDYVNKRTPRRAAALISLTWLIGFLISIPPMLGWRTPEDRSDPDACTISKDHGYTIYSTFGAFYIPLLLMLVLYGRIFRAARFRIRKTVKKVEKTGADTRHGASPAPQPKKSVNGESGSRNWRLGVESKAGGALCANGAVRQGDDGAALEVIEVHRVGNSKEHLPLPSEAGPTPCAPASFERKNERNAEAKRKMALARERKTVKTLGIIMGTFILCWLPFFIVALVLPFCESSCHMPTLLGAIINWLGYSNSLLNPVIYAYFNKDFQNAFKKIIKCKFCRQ

dopamine D4 = target: T4, dopamine D4 (Homo sapiens, UniProt P21917); test: Primary radioligand binding assay (NIMH PDSP); details: primary radiobinding assay, N-methylspiperone; as to D3 (% inh): test concentration or dose not given here; as to D4 (% inh): test concentration or dose not given here
T4 sequence (P21917 1-419): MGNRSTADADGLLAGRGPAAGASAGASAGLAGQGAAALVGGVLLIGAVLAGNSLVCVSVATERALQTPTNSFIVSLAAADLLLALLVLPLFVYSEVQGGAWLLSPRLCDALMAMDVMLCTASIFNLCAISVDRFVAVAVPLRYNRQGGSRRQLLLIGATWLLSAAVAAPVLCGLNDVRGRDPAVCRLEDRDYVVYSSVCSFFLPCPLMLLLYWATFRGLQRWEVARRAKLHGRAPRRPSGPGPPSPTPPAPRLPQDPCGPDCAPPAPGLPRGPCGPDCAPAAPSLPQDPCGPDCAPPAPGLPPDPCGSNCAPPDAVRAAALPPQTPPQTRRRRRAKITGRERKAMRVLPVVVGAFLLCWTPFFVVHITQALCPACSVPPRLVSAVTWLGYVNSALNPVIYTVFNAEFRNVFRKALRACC

α1A (Alpha1A) = target: T5, α1A (Alpha1A) (Homo sapiens, UniProt P35348); test: Secondary radioligand binding assay (Ki)
T5 sequence (P35348 1-466): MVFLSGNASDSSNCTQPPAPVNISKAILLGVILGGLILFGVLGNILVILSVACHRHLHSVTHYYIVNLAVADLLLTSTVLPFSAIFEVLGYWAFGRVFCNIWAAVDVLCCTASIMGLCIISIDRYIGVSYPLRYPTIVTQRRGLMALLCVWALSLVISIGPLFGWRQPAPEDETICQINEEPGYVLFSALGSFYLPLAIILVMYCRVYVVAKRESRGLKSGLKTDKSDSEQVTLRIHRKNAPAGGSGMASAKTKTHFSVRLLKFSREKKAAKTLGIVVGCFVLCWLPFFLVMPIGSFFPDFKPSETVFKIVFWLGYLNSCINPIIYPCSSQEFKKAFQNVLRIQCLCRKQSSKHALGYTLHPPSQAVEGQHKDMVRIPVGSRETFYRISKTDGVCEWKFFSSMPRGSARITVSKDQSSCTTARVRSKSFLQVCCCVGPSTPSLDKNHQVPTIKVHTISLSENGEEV
Experimental: as §1, §2, §3
Adrenergic Receptors: α1A, α1B, α2A, α2B, α2C, β1, β2, β3
as §5
The method is carried out in the manner described for the serotonin receptor assay above, except where described below. Eleven dilutions (5× assay concentration) of the test and reference (see Table 20) compounds are prepared in the appropriate buffer by serial dilution, as previously described. Radioligand is diluted to five times the assay concentration (see Table 21) in the appropriate buffer.
The 250 μl reactions are incubated at room temperature and shielded from light (to prevent photolysis of light-sensitive ligands) for 1 hour (for α1 receptors, 40 min for α2 receptors, and 1.5 hours for β receptors), then harvested by rapid filtration onto Whatman GF/B glass fiber filters pre-soaked with 0.3% polyethyleneimine using a 96-well Brandel harverster. Four rapid 500-μl washes are performed with chilled distilled water (for α1 and β receptors) or 0.1% polyethyleneimine (for α2 receptors) to reduce non-specific binding. Filters are placed in 6 ml scintillation tubes and allowed to dry overnight and the samples are treated to obtain data as described above.

dopamine D5 = dopamine D5 (Homo sapiens, UniProt P21918); test: Primary radioligand binding assay (NIMH PDSP); details: primary radiobinding assay, [3H]SCH233930; also: test concentration or dose not given here
Sequence of dopamine D5 (P21918 whole entry): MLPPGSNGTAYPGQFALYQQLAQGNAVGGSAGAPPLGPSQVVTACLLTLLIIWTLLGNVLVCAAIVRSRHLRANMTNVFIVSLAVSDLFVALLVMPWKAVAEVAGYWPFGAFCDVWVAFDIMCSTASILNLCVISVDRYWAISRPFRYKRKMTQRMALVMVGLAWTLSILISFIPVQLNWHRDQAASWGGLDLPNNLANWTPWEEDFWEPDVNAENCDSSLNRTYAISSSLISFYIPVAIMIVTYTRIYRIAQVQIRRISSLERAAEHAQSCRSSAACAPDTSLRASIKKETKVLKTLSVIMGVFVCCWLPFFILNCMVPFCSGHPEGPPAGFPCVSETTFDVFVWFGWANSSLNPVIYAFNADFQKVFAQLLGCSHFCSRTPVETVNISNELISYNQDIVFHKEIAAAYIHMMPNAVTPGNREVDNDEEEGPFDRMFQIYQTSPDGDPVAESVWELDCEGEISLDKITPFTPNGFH

5-HT2B = 5-HT2B (Homo sapiens, UniProt P41595); test: Secondary radioligand binding assay (Ki)
Sequence of 5-HT2B (P41595 whole entry, species assumed): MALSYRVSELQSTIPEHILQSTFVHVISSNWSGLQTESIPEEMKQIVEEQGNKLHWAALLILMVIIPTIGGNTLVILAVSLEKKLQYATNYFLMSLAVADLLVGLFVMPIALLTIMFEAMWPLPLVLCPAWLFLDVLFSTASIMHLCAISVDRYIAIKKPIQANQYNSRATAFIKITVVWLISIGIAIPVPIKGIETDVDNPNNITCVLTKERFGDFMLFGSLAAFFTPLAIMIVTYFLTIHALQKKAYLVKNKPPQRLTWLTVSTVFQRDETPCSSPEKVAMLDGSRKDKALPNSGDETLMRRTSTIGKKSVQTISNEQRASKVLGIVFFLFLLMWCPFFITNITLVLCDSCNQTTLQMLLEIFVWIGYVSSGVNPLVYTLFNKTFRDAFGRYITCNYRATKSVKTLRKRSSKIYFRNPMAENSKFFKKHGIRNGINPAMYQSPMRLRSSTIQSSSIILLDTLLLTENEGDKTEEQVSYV
Experimental: as §7, §8, §1, §2, §3

dopamine D2 [4] = target: T1, dopamine D2; test: Secondary radioligand binding assay (Ki); details: for α1/D2: Table 22: Selectivity of Dopamine D2 over average of α1 Receptors; for α1A/D2 / α1B/D2 / α1D/D2: Table 22: Selectivity of Dopamine D2 over α1 Receptors, ratio of Ki
Experimental: as §1, §2, §3, §4, §5, §6

Alpha1B = target: T6, Alpha1B (Homo sapiens, UniProt P35368); test: Primary radioligand binding assay (NIMH PDSP); details: primary radiobinding assay, [3H]Prazosin; also: test concentration or dose not given here
T6 sequence (P35368 1-520): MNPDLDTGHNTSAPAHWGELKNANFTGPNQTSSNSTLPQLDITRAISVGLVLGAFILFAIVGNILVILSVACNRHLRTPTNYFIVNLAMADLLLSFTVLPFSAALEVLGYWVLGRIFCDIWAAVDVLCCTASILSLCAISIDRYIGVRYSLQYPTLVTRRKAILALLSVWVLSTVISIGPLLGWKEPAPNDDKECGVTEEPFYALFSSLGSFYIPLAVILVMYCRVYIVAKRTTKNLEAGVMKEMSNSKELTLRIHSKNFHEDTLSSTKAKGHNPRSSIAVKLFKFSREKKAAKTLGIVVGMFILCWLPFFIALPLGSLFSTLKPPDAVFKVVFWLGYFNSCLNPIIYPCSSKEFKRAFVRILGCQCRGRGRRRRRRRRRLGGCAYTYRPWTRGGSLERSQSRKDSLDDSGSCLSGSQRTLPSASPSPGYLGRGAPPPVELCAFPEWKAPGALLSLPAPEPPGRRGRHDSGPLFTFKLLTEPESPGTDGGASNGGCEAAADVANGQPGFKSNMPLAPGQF

[5] = read-out: Experimental Receptor Binding Data-Ki ALPHA_1A, Table 25, GPCR panel
[6] = read-out: Experimental Receptor Binding Data-Ki D3, Table 25, GPCR panel
[7] = read-out: Experimental Receptor Binding Data-Ki D2, Table 25, GPCR panel

Sequence of dopamine D1 (P21728 whole entry): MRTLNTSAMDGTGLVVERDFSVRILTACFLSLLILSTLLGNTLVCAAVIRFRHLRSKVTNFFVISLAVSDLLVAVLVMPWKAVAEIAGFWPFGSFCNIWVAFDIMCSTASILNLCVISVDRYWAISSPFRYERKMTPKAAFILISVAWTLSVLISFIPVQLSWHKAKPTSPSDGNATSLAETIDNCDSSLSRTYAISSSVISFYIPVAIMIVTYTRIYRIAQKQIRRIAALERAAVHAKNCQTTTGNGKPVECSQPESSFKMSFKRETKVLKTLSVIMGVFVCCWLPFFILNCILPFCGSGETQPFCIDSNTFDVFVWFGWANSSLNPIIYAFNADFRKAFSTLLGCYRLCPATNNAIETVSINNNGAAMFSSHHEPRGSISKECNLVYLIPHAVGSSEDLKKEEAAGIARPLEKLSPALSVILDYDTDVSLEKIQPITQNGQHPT

Structure (SMILES) | D1 (% inh) (dopamine D1) | D2 (% inh) (dopamine D2 [1]) | α1/D2 (dopamine D3 [2]) | α1A/D2 (dopamine D3 [2]) | α1B/D2 (dopamine D3 [2]) | α1D/D2 (dopamine D3 [2]) | Ki (5-HT5A) | D3 (% inh) (dopamine D3 [3]) | 5ht1a (% inh) (5HT1a) | D4 (% inh) (dopamine D4) | Ki (α1A (Alpha1A); [5]) | Ki (α1A (Alpha1A); read-out: Kiα1A) | D5 (% inh) (dopamine D5) | Ki (5-HT2B) | α1/D2 (dopamine D2 [4]) | α1A/D2 (dopamine D2 [4]) | α1B/D2 (dopamine D2 [4]) | α1D/D2 (dopamine D2 [4]) | Alpha1B (% inh) (Alpha1B) | Ki (dopamine D3 [2]; [6]) | other results
COc1ccc2c(c1)C(=O)N(CCCN1CCN(c3ccccc3OC)CC1)C2 [GFR-VII-273] | 49.5 % inh | 85 % inh | 1.0 | 0.4 | 1.98 | 0.5 | 2900 nM | 94.1 % inh | 92.5 % inh | 99.6 % inh | 64.9 nM | 64.9 nM | 31.8 % inh | 19 nM | 0.12 | 0.080 | 0.398 | 0.100 | 102.5 % inh | – | Ki (dopamine D3 [2]): 163 nM; Ki (dopamine D2 [4]): 812 nM
COc1ccc2c(c1)C(=O)N(CCN1CCN(c3ccccc3OC)CC1)C2 [GFR-VII-280-HCl] | 30 % inh | 69.8 % inh | 0.1 | 0.05 | 0.16 | 0.03 | 2490 nM | 95.7 % inh | 92 % inh | 95.9 % inh | – | – | 6 % inh | 242 nM | 0.008 | 0.005 | 0.017 | 0.003 | 101 % inh | – | Ki (dopamine D3 [2]): 180 nM; Ki (α1A (Alpha1A)): 8.5 nM; Ki (dopamine D2 [4]): 1740 nM
COc1ccc2c(c1)C(=O)N(CCN1CCN(c3ccccc3OC)CC1)C2 [GFR-VII-280] | 29.3 % inh | 66.6 % inh | – | 0.08 | 0.19 | 0.06 | – | 98.1 % inh | 92.4 % inh | 97.2 % inh | 15.9 nM | 15.9 nM | 21.8 % inh | – | 0.014 | 0.010 | 0.023 | 0.008 | 104.4 % inh | 208 nM | Ki (dopamine D3 [2]; read-out: KiD3): 208 nM; Ki (5-HT5A; read-out: Experimental Receptor Binding Data-Ki 5HT5A, Table 25, GPCR panel): 2150 nM; Ki (5-HT2B; read-out: Experimental Receptor Binding Data-Ki 5HT2B, Table 25, GPCR panel): 160 nM; Ki (dopamine D2 [4]; [7]): 1650 nM; Ki (dopamine D2 [4]; read-out: KiD2): 1650 nM
COc1cc2c(cc1OC)C(=O)N(CCCCN1CCN(c3ccccc3OC)CC1)C2 [GFR-VII-285] | 91.3 % inh | 96.2 % inh | 0.75 | 0.08 | 1.8 | 0.4 | 2440 nM | 100.5 % inh | 93.3 % inh | 91.6 % inh | 0.9 nM | 0.9 nM | 75.1 % inh | 41 nM | 0.053 | 0.006 | 0.124 | 0.028 | 101.5 % inh | 11 nM | Ki (dopamine D3 [2]; read-out: KiD3): 11 nM; Ki (dopamine D2 [4]; [7]): 156 nM; Ki (dopamine D2 [4]; read-out: KiD2): 156 nM
COc1ccc2c(c1)CN(CCCN1CCN(c3ccccc3OC)CC1)C2=O [GFR-VII-290] | 54.5 % inh | 82.1 % inh | 1.6 | 0.4 | 4.0 | 0.37 | 2470 nM | 94.7 % inh | 98.3 % inh | 97.3 % inh | 59.9 nM | 59.9 nM | 32.5 % inh | 117 nM | 0.177 | 0.044 | 0.445 | 0.041 | 52.4 % inh | 152 nM | Ki (dopamine D3 [2]; read-out: KiD3): 152 nM; Ki (dopamine D2 [4]; [7]): 1370 nM; Ki (dopamine D2 [4]; read-out: KiD2): 1370 nM
